Where a name gives a salt, the structure may show the parent alone.
Biological target: T1, IRAK4 (Homo sapiens, UniProt Q9NWZ3)
T1 sequence (Q9NWZ3 1-460): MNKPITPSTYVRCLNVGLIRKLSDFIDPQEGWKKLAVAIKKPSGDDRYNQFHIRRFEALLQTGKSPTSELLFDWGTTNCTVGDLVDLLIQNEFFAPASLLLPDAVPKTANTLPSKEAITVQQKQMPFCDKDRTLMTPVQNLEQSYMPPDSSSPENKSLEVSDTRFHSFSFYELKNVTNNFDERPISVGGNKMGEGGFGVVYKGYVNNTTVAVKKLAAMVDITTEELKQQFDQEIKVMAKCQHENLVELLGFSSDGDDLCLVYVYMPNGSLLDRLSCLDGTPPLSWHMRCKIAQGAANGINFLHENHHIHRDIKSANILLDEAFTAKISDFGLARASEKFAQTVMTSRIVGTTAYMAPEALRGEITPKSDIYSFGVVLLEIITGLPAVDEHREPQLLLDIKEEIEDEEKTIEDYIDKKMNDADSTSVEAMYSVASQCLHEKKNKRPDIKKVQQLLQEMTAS
Assay: biochemical
Settings: not given

`CCn1ccc(NC(=O)c2cn3cc(C45COC(C)(C4)C5)nc3cc2OC2CCC2)n1` [Example 528, 7-Cyclobutoxy-N-(1-ethyl-1H-pyrazol-3-yl)-2-(1-methyl-2-oxabicyclo[2.1.1]hexan-4-yl)imidazo[1,2-a]pyridine-6-carboxamide] and `CC12CCC(c3cn4cc(C(=O)Nc5ccn(CCF)n5)c(OC5CCC5)cc4n3)(CO1)C2` (centres unmarked) [Example 537, 7-Cyclobutoxy-N-(1-(2-fluoroethyl)-1H-pyrazol-3-yl)-2-(1-methyl-2-oxabicyclo[2.2.1]heptan-4-yl)imidazo[1,2-a]pyridine-6-carboxamide] are within 1.5-fold of each other in IC50: 0.0052 µM for the first, 0.0063 µM for the second.

Compared with `COc1cc2nc(C3CCOCC3)cn2cc1C(=O)Nc1cscc1Cl` [Example 111], `CCc1c(NC(=O)c2cn3cc(C4CCOCC4)nc3cc2OC)cnn1C` [Example 199] is 9.1-fold higher in IC50: 0.0198 µM for the first, 0.181 µM for the second. The first is the more potent here.

`CC(C)Oc1cc2nc([C@]34CC[C@](C)(C3)OC4)cn2cc1C(=O)Nc1cccc(C(F)F)n1` (single isomer, unassigned) [Example 608] and `CC(C)Oc1cc2nc([C@@]34CC[C@@H](C3)OC4)cn2cc1C(=O)Nc1cccc(C(F)F)n1` (single isomer, unassigned) [Example 590] are the same in IC50: 0.0001 µM for the first, 0.0001 µM for the second.

First: CC12CC(c3cn4cc(C(=O)Nc5cnn6cccnc56)c(OC5CCC5)nc4n3)(CO1)C2 [Example 371, 7-Cyclobutoxy-2-(1-methyl-2-oxabicyclo[2.1.1]hexan-4-yl)-N-(pyrazolo[1,5-a]pyrimidin-3-yl)imidazo[1,2-a]pyrimidine-6-carboxamide]
Second: CC12CC(c3cn4cc(C(=O)Nc5cnn6cccnc56)c(OC5CC5)cc4n3)(CO1)C2 [Example 551]
The IC50 of the first is 6.3-fold lower: 0.0003 µM for the first, 0.0019 µM for the second. The first is the more potent here.

Compared with `COc1nc(C(=O)Nc2ccn(C)n2)cn2cc(C3CCOCC3)nc12` [Example 88], `O=C(Nc1cccc(C(F)(F)F)n1)c1cn2cc(C3CCOCC3)nc2cn1` [Example 82] is 2.3-fold higher in IC50: 0.0509 µM for the first, 0.119 µM for the second. The first is the more potent here.

`CC(C)Oc1nc2nc(C34COC(C)(C3)C4)cn2cc1C(=O)Nc1cnn2cccc(F)c12` [Example 408, N-(4-fluoropyrazolo[1,5-a]pyridin-3-yl)-7-isopropoxy-2-(1-methyl-2-oxabicyclo[2.1.1]hexan-4-yl)imidazo[1,2-a]pyrimidine-6-carboxamide] and `CC(C)Oc1nc2nc(C34CCC(C3)OC4)cn2cc1C(=O)Nc1cnn2cccnc12` (centres unmarked) [Example 565, 2-(2-Oxabicyclo[2.2.1]heptan-4-yl)-7-isopropoxy-N-(pyrazolo[1,5-a]pyrimidin-3-yl)imidazo[1,2-a]pyrimidine-6-carboxamide] are within 1.5-fold of each other in IC50: 0.0007 µM for the first, 0.0005 µM for the second.

Going from `COc1cccc(NC(=O)c2cn3cc(C45CCC(C)(C4)OC5)nc3cc2OC2CCC2)n1` (centres unmarked) [Example 541, 7-Cyclobutoxy-N-(6-methoxypyridin-2-yl)-2-(1-methyl-2-oxabicyclo[2.2.1]heptan-4-yl)imidazo[1,2-a]pyridine-6-carboxamide] to `Cn1cccc(NC(=O)c2cn3cc(C45CCC(C)(C4)OC5)nc3cc2OC2CCC2)c1=O` (centres unmarked) [Example 422, 7-Cyclobutoxy-N-(1-methyl-2-oxo-1,2-dihydropyridin-3-yl)-2-(1-methyl-2-oxabicyclo[2.2.1]heptan-4-yl)imidazo[1,2-a]pyridine-6-carboxamide], the IC50 rises from 0.0002 µM to 0.0005 µM (2.5-fold). The first is the more potent here.

Compound `Cc1cnc2c(NC(=O)c3cn4cc(C56CCC(C)(CC5)CO6)nc4nc3OC(C)C)cnn2c1` [Example 567, 7-Isopropoxy-2-(4-methyl-2-oxabicyclo[2.2.2]octan-1-yl)-N-(6-methylpyrazolo[1,5-a]pyrimidin-3-yl)imidazo[1,2-a]pyrimidine-6-carboxamide] has an IC50 of 0.0002 µM.

Same assay, conditions: IRAK4 Biochemical Assay (1 mM ATP, 2 h) IC50 (μM), 1 mM ATP, 2 h, 100 pM IRAK4

`CCOc1nc(C(=O)Nc2cccnc2OC)cn2cc(C3CC3)nc12` [Example 279, 2-Cyclopropyl-8-ethoxy-N-(2-methoxypyridin-3-yl)imidazo[1,2-a]pyrazine-6-carboxamide trifluoroacetate] and `COc1cccc(NC(=O)c2cn3cc(C4C5CCOCC54)nc3cc2OC)n1` (centres unmarked) [Example 25] are within 1.5-fold of each other in IC50: 0.0038 µM for the first, 0.0031 µM for the second.

— patent publication US20230087118A1, “IMIDAZO[1,2-a][sequence] DERIVATIVES AND THEIR USE IN THE TREATMENT OF DISEASE” (priority 2019, published 2023)
